In patent US20230399325A1, “SUCCINATE AND CRYSTAL FORM THEREOF AS THERAPEUTICS” (AUCENTRA THERAPEUTICS PTY LTD, priority 2020, published 2023):
Read-outs that look alike come from different tables or passages of the source.

Assays:
[1] = Dynamic solubility in water and FaSSIF at 37° C.; assay type: physicochemical; details: for solubility at 1 h / solubility at 2 h / solubility at 4 h / solubility at 24 h: thermodynamic from solid, read-out: S: Solubility
[2] = Solid-state stability, 14 days, HPLC; assay type: physicochemical
Protocol: Compound A salts and Compound A were tested for their solid-state stability under the conditions of 25° C./60% RH and 40° C./75% RH.

[3] = Hygroscopicity by dynamic moisture adsorption (DVS); assay type: physicochemical; details: for Hygroscopicity: 25° C./80% RH, succinate
Protocol: Dynamic moisture adsorption (DVS) was used to evaluate the hygroscopicity of compound A and salt forms under the condition of 25° C. and 80% RH.

U-87MG = assay: Thymidine incorporation (3H-TdR) anti-proliferative assay, U-87MG; assay type: cell-based; details: Homo sapiens, Brain tumor
Protocol: (§1) The thymidine incorporation (3H-TdR) assay was used to assess the anti-proliferative effect of the Compound A succinate on tumor cell lines. The cells were treated with a series of concentrations of Compound A succinate for 24 hours; 3H-TdR was added, and the cells were continued in the incubator for further 48 hours. Scintillation fluid was added, read on a liquid scintillation counter, and the inhibiting cell growth by 50% (IC50) was calculated as shown in Table 5.

COLO-205 = assay: Thymidine incorporation (3H-TdR) anti-proliferative assay, COLO-205; assay type: cell-based; details: Homo sapiens; COLO-205, Colon cancer
Protocol: as §1

SK-OV-3 = assay: Thymidine incorporation (3H-TdR) anti-proliferative assay, SK-OV-3; assay type: cell-based; details: Homo sapiens; SK-OV-3, Ovarian cancer
Protocol: as §1

ZR-75-1 = assay: Thymidine incorporation (3H-TdR) anti-proliferative assay, ZR-75-1; assay type: cell-based; details: Homo sapiens; ZR-75-1, Breast cancer
Protocol: as §1

MDA-MB-435S = assay: Thymidine incorporation (3H-TdR) anti-proliferative assay, MDA-MB-435S; assay type: cell-based; details: Homo sapiens, Breast cancer
Protocol: as §1

PANC-1 = assay: Thymidine incorporation (3H-TdR) anti-proliferative assay, PANC-1; assay type: cell-based; details: Homo sapiens; PANC-1, Pancreatic cancer
Protocol: as §1

Raji = assay: Thymidine incorporation (3H-TdR) anti-proliferative assay, Raji; assay type: cell-based; details: Homo sapiens, Lymphoma
Protocol: as §1

MOLM-13 = assay: Thymidine incorporation (3H-TdR) anti-proliferative assay, MOLM-13; assay type: cell-based; details: Homo sapiens; MOLM-13, Leukemia
Protocol: as §1

MV-4-11 = assay: Thymidine incorporation (3H-TdR) anti-proliferative assay, MV-4-11; assay type: cell-based; details: Homo sapiens, MV4-11; MV-4-11, Leukemia
Protocol: as §1

PC-3 = assay: Thymidine incorporation (3H-TdR) anti-proliferative assay, PC-3; assay type: cell-based; details: Homo sapiens; PC-3, Prostate cancer
Protocol: as §1

[4] = system: A2780 ovarian cancer cells; assay: Subcutaneous A2780 ovarian cancer xenograft; assay type: in vivo, female BALB/c nude mice; details: for Tumor volume (±S): 14 days; for Mean tumor growth inhibition (T/C): day 14
Protocol: Compound A succinate was also assessed for in vivo anti-tumor activity in subcutaneous xenografts. Briefly, female BALB/c nude mice were inoculated with A2780 ovarian cancer cells; when the mean tumour volume reached 150-200 mm^3, animals were randomized to groups. The animals (n=8 per group) were treated orally with vehicle (ultra-pure water), Compound A succinate (62.5, 125 or 250 mg/kg), or Palbociclib (75 mg/kg) once a day for 14 consecutive days. Mice were observed daily for signs of toxicity and weight loss, and tumour volume measured every other day. […] Palbociclib was efficacious at 75 mg/kg, resulting in T/C of 42.8% (Table 6).

[5] = system: COLO 205 colorectal tumor xenograft; assay: COLO 205 colorectal tumor xenograft; assay type: in vivo, mice; details: for Tumor volume (±S): 21 days; for Inhibition of tumor growth (T/C): day 21, succinate
Protocol: A separate study of Compound A succinate was conducted in COLO 205 colorectal tumor xenograft. The tumor-bearing mice (n=8) were treated orally with vehicle (ultra-pure water), or Compound A succinate (50 or 100 mg/kg) once daily for 21 days. As a positive control chemotherapy 5-FU (15 mg/kg) was given intraperitoneally. […] 5-FU was also effective with a T/C=47.2% (Table 7).

[6] = Pharmacokinetic study of Compound A succinate in cynomolgus monkeys; assay type: in vivo; details: for AUC(0-inf) / AUC(0-t) / Cmax / clearance / half-life / Vd: cynomolgus monkey, plasma; for Vd: read-out: Vz; for F: succinate
Protocol: In a separate study, four cynomolgus monkeys were divided into two groups (n=2 per group), and given Compound A succinate at 2 mg/kg by i.v. and 24 mg/kg by i.g., respectively. The plasma samples were collected, analyzed and PK parameters were calculated as above.

[7] = iv, i.v. 2 mg/kg, female cynomolgus monkeys
[8] = iv, i.v. 2 mg/kg, male cynomolgus monkeys
[9] = po, i.g. 24 mg/kg, female cynomolgus monkeys
[10] = po, i.g. 24 mg/kg, male cynomolgus monkeys

## CCN1CCN(Cc2ccc(Nc3ncc(F)c(-c4sc(NC5CCCC5)nc4C)n3)nc2)CC1.O=C(O)CCC(=O)O [Compound A succinate, N-Cyclopentyl-5-(2-((5-((4-ethylpiperazin-1-yl)methyl)pyridin-2-yl)amino)-5-fluoropyrimidin-4-yl)-4-methylthiazol-2-amine succinate]
[1]; both FaSSIF and water
  solubility compared to Compound A free base: significantly increased
[1]; FaSSIF
  solubility at 1 h: 8200 µg/mL
  solubility at 2 h: 8100 µg/mL
  solubility at 4 h: 8100 µg/mL
  solubility at 24 h: 1100 µg/mL
[1]; water, H2O
  solubility at 1 h: 2000 µg/mL
  solubility at 2 h: 2000 µg/mL
  solubility at 4 h: 2100 µg/mL
  solubility at 24 h: 2300 µg/mL
[2]; 25° C./60% RH
  Purity: 97.9 area %
  Relative purity: 100.0 % of initial
[2]; 40° C./75% RH
  Purity: 97.9 area %
  Relative purity: 100.0 % of initial
[3]
  Moisture absorbed at 25° C./80% RH: 1.1%
  Hygroscopicity: minimal hygroscopicity
[3]; listed as Succinate
  Hygroscopicity: Slightly hygroscopic
U-87MG
  IC50: 42.6 nM
COLO-205
  IC50: 839 nM
SK-OV-3
  IC50: 812 nM
ZR-75-1
  IC50: 35.7 nM
MDA-MB-435S
  IC50: 37.3 nM
PANC-1
  IC50: 812 nM
Raji
  IC50: 608 nM
MOLM-13
  IC50: 260 nM
MV-4-11
  IC50: 88.8 nM
PC-3
  IC50: 168 nM
[4]; 62.5 mg/kg orally once a day
  Tumor volume (±S): 1789.5 ± 131.5 mm^3
  Mean tumor growth inhibition (T/C): 44.8%
[4]; 125 mg/kg orally once a day
  Tumor volume (±S): 1009.6 ± 87.0 mm^3
  Mean tumor growth inhibition (T/C): 70.8%
[4]; 250 mg/kg orally once a day
  Tumor volume (±S): 546.4 ± 71.1 mm^3
  Mean tumor growth inhibition (T/C): 86.2%
[5]; 50 mg/kg orally once daily
  Tumor volume (±S): 941.10 ± 80.90 mm^3
  Inhibition of tumor growth (T/C): 36.3%
[5]; 50 mg/kg orally once daily, listed as compound A Succinate
  Inhibition of tumor growth (T/C): 36.26%
[5]; 100 mg/kg orally once daily
  Tumor volume (±S): 443.72 ± 40.49 mm^3
  Inhibition of tumor growth (T/C): 74.7%
[5]; 100 mg/kg orally once daily, listed as compound A Succinate
  Inhibition of tumor growth (T/C): 74.69%
[6]; [7]
  AUC(0-inf): 1190 ng·h/mL
  AUC(0-t): 1170 ng·h/mL
  Cmax: 371 ng/mL
  clearance: 31 mL/min/kg
  half-life: 4.7 h
  Vd: 13.2 L/kg
[6]; [8]
  AUC(0-inf): 872 ng·h/mL
  AUC(0-t): 843 ng·h/mL
  Cmax: 240 ng/mL
  clearance: 39.1 mL/min/kg
  half-life: 5.3 h
  Vd: 17.7 L/kg
[6]; [9]
  AUC(0-inf): 7740 ng·h/mL
  AUC(0-t): 7700 ng·h/mL
  Cmax: 532 ng/mL
  half-life: 6 h
[6]; [10]
  AUC(0-inf): 7420 ng·h/mL
  AUC(0-t): 7370 ng·h/mL
  Cmax: 593 ng/mL
  half-life: 6 h
[6]; i.g. 24 mg/kg, female cynomolgus monkeys
  F: 54.9%
[6]; i.g. 24 mg/kg, male cynomolgus monkeys
  F: 72.8%
